Counter-ions that a name gives are not always drawn. Like-named read-outs stand apart in the source and are kept apart here.
Molecular target: PAF receptor (Oryctolagus cuniculus, UniProt G1TEI7)
Experiment: PAF receptor binding assay: inhibition of specific [3H]C18-PAF binding to rabbit platelet membranes
Settings: 0.6 nM [3H]C18-PAF, 60 min, 22-23 °C, Ki from IC50 (Cheng and Prusoff)
Protocol: The ability of representative compounds of the present invention to inhibit PAF activity was determined in an in vitro test using the following method.
Citrated whole rabbit blood was obtained from Pel-Freez (Rogers, AR). Rabbit platelets were prepared by centrifugation and washing. The platelets were lysed by freeze-thawing and sonication; platelet membranes were prepared by centrifugation and washing. Final membrane preparations were stored frozen in 10 mM Tris/5 mM MgCl2 /2 mM EDTA (TME buffer, pH 7.0) with 0.25M sucrose added for membrane stabilization.
The standard PAF receptor binding assay contained 10 μg platelet membrane protein, 0.6 nM [^3 H]C18 -PAF (from Amersham or New England Nuclear; specific activity 120-180 Ci/mmol), with and without test compound, in "binding buffer" consisting of TME with 0.25% bovine serum albumin added (Sigma, RIA grade). The final volume of the assay was 100 μl. The assay was conducted in Millititre-GV™ (Millipore Corp.) filtration plates; incubation time was for 60 minutes at room temperature (22°-23° C.). "Specific binding" was operationally defined as the arithmetic difference between "total binding" of 0.6 nM [^3 H]C18 -PAF (in the abasence of added PAF) and "nonspecific binding" (in the presence of 1 μM PAF). After the prescribed incubation, platelet membranes were filtered under vacuum, and washed with 1 milliliter of "binding buffer". The filters were dried and removed. The bound radioactivity was quantitated with a Berthold TLC-Linear Analyzer model LB2842.
Dose-response curves of inhibition of specific [^3 H]C18 -PAF binding by test compounds were conducted in triplicate, with at least four doses covering the active range. Experiments were repeated at least once. IC50 values (concentration producing 50% inhibition) were determined by point-to-point evaluation. Ki values of inhibitory binding constants were calculated according to the method of Cheng and Prusoff [Biochem. Pharmacol. 22 (1973) 3099-3108] whereby [formula]
The values of Ki for representative compounds of the present invention appear in Table 1.

[1] = read-out: Ki (PAF Receptor Binding Activity)
[2] = Ki (PAF Receptor Binding Activity)

Chain of PAF receptor (G1TEI7 1-342): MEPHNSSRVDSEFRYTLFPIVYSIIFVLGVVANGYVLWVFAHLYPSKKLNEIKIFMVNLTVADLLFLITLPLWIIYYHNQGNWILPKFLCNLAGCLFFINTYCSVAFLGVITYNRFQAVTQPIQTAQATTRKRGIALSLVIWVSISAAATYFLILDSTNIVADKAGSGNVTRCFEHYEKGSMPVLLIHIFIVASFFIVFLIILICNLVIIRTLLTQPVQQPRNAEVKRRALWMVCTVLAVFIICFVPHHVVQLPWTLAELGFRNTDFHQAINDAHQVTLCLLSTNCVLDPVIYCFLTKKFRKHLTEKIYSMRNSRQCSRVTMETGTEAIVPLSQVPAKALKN

Compound	Ki [1]	Ki [2]
Cc1[nH]c2cc(OCc3ccccc3)ccc2c1C(=O)C1CSC(c2cccnc2)N1 (stereo not drawn) [Example 79, 2-methyl-3-[2-(3-pyridinyl)thiazolid-4-oyl]-6-phenylmethoxyindole]	16 nM	
CN(C)C(=O)n1cc(C(=O)C2CSC(c3cccnc3)N2)c2ccc(OCc3ccccc3)cc21 (stereo not drawn) [Example 123, 1-dimethylcarbamoyl-3-[2-(3-pyridinyl)thiazolid-4-oyl]-6-phenylmethoxyindole oxalate]	2 nM	
CC(C)(C)C(=O)n1cc(C(=O)C2CSC(c3cccnc3)N2)c2ccccc21 (stereo not drawn) [Example 47, 1-tert-butoyl-3-[2-(3-pyridinyl)thiazolid-4-oyl]indole]	9 nM	
O=C(c1cn(S(=O)(=O)c2ccccc2)c2ccccc12)C1CSC(c2cccnc2)N1 (stereo not drawn) [Example 36, 1-phenylsulfonyl-3-[2-(3-pyridinyl)thiazolid-4-oyl]indole]	30 nM	
COc1cc2ccn(C(=O)C3CSC(c4cccnc4)N3)c2cc1OC (stereo not drawn) [Example 13, 1-[2-(3-pyridinyl)thiazolid-4-oyl]-5,6-dimethoxyindole dihydrochloride]		2400 nM
Cc1cccc2c(C(=O)C3CSC(c4cccnc4)N3)c[nH]c12 (stereo not drawn) [Example 25, 3-(2-(3-pyridinyl)thiazolid-4-oyl)-7-methylindole oxalate]		5 nM
O=C(c1c[nH]c2ccccc12)C1CSC(c2cccnc2)N1C(=O)C(F)(F)F (single isomer, unassigned; isomer 1) [Example 102, 3-[2-(3-pyridinyl)-3-trifluoroacetylthiazolid-4-oyl]indole,isomer 1]	2700 nM	
O=C(c1cn(Cc2ccccc2)c2ccccc12)C1CSC(c2cccnc2)N1 (stereo not drawn) [Example 46, 1-phenylmethyl-3-[2-(3-pyridinyl)thiazolid-4-oyl]indole]		50 nM
CN(C)C(=O)n1cc(C(=O)[C@@H]2CS[C@@H](c3cccnc3)N2C(=O)C(F)(F)F)c2ccccc21 (relative stereo) [Example 107, trans-1-dimethylcarbamoyl 1-34 2-(3-pyridinyl)-3-trifluoroacetylthiazolid-4-oyl]indole oxalate]	75 nM	
O=C(O)CCn1cc(C(=O)C2CSC(c3cccnc3)N2)c2ccccc21 (stereo not drawn) [Example 119, 1-carboxyethyl-3-[2-(3-pyridinyl)thiazolid-4-oyl]indole]		20 nM
Cc1c(C(=O)C2CSC(c3cccnc3)N2)c2ccccc2n1C (stereo not drawn) [Example 21, 1.2-dimethyl-3-[2-(3-pyridinyl)thiazolid-4-oyl]indole oxalate]	105 nM	
CS(=O)(=O)n1cc(C(=O)C2CSC(c3cccnc3)N2)c2ccccc21 (stereo not drawn) [Example 37, 1-methylsulfonyl-3-[2-(3-pyridinyl)thiazolid-4-oyl-]indole]		15 nM
CCOC(=O)Cn1cc(C(=O)C2CSC(c3cccnc3)N2)c2ccccc21 (stereo not drawn) [Example 60, 1-ethoxycarbonylmethyl-3-[2-(3-pyridinyl)thiazolid-4-oyl]indole]		2 nM
Cc1ccc2c(C(=O)C3CSC(c4cccnc4)N3C=O)cn(C(=O)N(C)C)c2c1 (stereo not drawn) [Example 94, 1-dimethylcarbamoyl-3-[2-(3-pyridinyl)-3-formylthiazolid-4-oyl]-6-methylindole]	33 nM	
Cc1ccc2c(c1)c(C(=O)C1CSC(c3cccnc3)N1)c(C)n2C(=O)N1CCOCC1 (stereo not drawn) [Example 68, 1-(4-morpholinocarbonyl)-2,5-dimethyl-3-[2-(3-pyridinyl)thiazolid-4-oyl]indole]	36 nM	
CC(C)(C)OC(=O)n1cc(C(=O)C2CSC(c3cccnc3)N2)c2cccc(OCc3ccccc3)c21 (stereo not drawn) [Example 53, 1-tert-butoxycarbonyl-7-phenylmethoxy-3-[2-(3-pyridinyl)thiazolid-4-oyl]indole]	1 nM	
O=C(C1CSC(c2cccnc2)N1)n1ccc2cc(OCc3ccccc3)ccc21 (stereo not drawn) [Example 11, 1-(2-(3-pyridinyl)thiazolid-4-oyl)-5-phenylmethoxyindole dihydrochloride]	15 nM	
CN(C)C(=O)n1cc(C(=O)C2CSC(c3cccnc3)N2C(N)=O)c2ccc(OCc3ccccc3)cc21 (stereo not drawn) [Example 111, 1-dimethylcarbamoyl-3-[2-(3-pyridinyl)-3-carbamoylthiazolid-4-oyl]-6-phenylmethoxyindole]	700 nM	
CN(C)C(=O)n1cc(C(=O)C2CSC(c3cccnc3)N2C(=O)C(F)(F)F)c2ccc(OCc3ccccc3)cc21 (single isomer, unassigned; isomer 1) [Example 108, 1-dimethylcarbamoyl-3-[2-(3-pyridinyl)-3-trifluoroacetylthiazolid-4-oyl]-6-phenylmethoxyindole, isomer 1]	250 nM	
CN(C)C(=O)n1cc(C(=O)C2CSC(c3cccnc3)N2)c2ccc(Oc3ccc(F)cc3)cc21 (stereo not drawn) [Example 71, 1-dimethylcarbamoyl-3-[2-(3-pyridinyl)thiazolid-4-oyl]-6-(4-fluorophenoxy)indole]	2 nM	
O=C(c1c[nH]c2cc(OCc3ccccc3)ccc12)C1CSC(c2cccnc2)N1 (stereo not drawn) [Example 34, 6-phenylmethoxy-3-[2-(3-pyridinyl)thiazolid-4-oyl]indole]	2 nM	
CN(C)C(=O)Cn1cc(C(=O)C2CSC(c3cccnc3)N2)c2ccccc21 (stereo not drawn) [Example 116, 1-(N,N-dimethylcarbamoylmethyl)-3-[2-(3-pyridinyl)thiazolid-4-oyl]indole]		7 nM
CN(C)C(=O)n1cc(C(=O)C2CSC(c3cccnc3)N2C(=O)C(F)(F)F)c2ccc(OCc3ccccc3)cc21 (single isomer, unassigned; isomer 2) [Example 109, 1-dimethylcarbamoyl-3-[2-[3-pyridinyl)-3-trifluoroacetylthiazolid-4-oyl]-6-phenylmethoxyindole, isomer 2]	70 nM	
CC(C)(C)OC(=O)n1cc(C(O)C2CSC(c3cccnc3)N2)c2ccccc21 (stereo not drawn) [Example 114, [2-(3-pyridinyl)thiazolid-4-yl](1-tert-butoxycarbonylindol-3-yl)methanol]	43 nM	
O=C(c1ccccc1)c1ccc2ccn(C(=O)C3CSC(c4cccnc4)N3)c2c1 (stereo not drawn) [Example 17, 1-[2-(3-pyridinyl)thiazolid-4-oyl]-6-benzoylindole]	93 nM	
CN(C)C(=O)n1cc(C(=O)[C@@H]2CS[C@H](c3cccnc3)N2C(=O)C(F)(F)F)c2ccccc21 (relative stereo) [Example 104, cis-1-dimethylcarbamoyl-3-[2-(3-pyridinyl)-3-trifluoroacetylthiazolid-4-oyl]indole]	650 nM	
CN(C)C(=O)n1cc(C(=O)C2CSC(c3cccnc3)N2)c2ccc(OCc3ccc(F)cc3)cc21 (stereo not drawn) [Example 75, 1-dimethylcarbamoyl-3-[2-(3-pyridinyl)thiazolid-4-oyl]-6-(4-fluorophenylmethoxy)indole]	2 nM	
CN(C)C(=O)n1cc(C(=O)C2CSC(c3cccnc3)N2)c2cccc(OCc3ccccc3)c21 (stereo not drawn) [Example 51, 1-dimethylcarbamoyl)-7-phenylmethoxy-3-[2-(3-pyridinyl)thiazolid-4-oyl]indole oxalate]	13 nM	
O=C(c1cn(CC(F)(F)F)c2ccccc12)C1CSC(c2cccnc2)N1 (stereo not drawn) [Example 59, 1-trifluoroethyl-3-[2-(3-pyridinyl)thiazolid-4-oyl]indole]		20 nM
O=C(c1c[nH]c2ccccc12)C1CSC(c2cccnc2)S1 (stereo not drawn) [Example 31, 3-2-(3-pyridinyl)dithiolan-4-oyl]indole oxalate]	1700 nM	

From patent US5382670A, “Platelet activating factor antagonists” (priority 1993, dated 1995)
